The results in this text go back to patent publication US12071426B2, “IRE1 small molecule inhibitors” (Cornell University, priority 2018, dated 2024).

A short description of data set [1]: Microsome stability assay. It counts as in vitro ADME. Conditions: liver microsomes, 1 μM, 37° C., 0.5 mg/ml microsomal protein. The method, then: The formic acid salt of a compound from Table 1 is tested under the microsome stability assay outlined below. Test compounds are incubated at 37° C. with liver microsomes (pooled from multiple donors) at 1 μM in the presence of a NADPH regenerating system at 0.5 mg/ml microsomal protein. Positive controls included Testosterone (3A4 substrate), Propafenone (2D6) and Diclofenac (2C9), which are incubated with microsomes in the presence of an NADPH regenerating system. At time points (0, 5, 10, 20, 30 and 60 minutes), samples are removed and immediately mixed with cold acetonitrile containing internal standard (IS). Test compounds incubated with microsomes without the NADPH regenerating system for 60 min is also included. A single point for each test condition (n=1) is obtained, and samples are analyzed by LC/MS/MS. Disappearance of the test compound is assessed based on peak area ratios of analyte/IS (no standard curve). […] Compound 1 was tested and had 45% or more of parent compound remaining after a 60 minute incubation.
For orientation: Microsomes from liver hold many membrane-bound enzymes, among them those of drug oxidation.

The target of data set [2] is T1, IRE1a (Homo sapiens, UniProt O75460). In words: IRE1a Endoribonuclease Nanoluciferase Assay (XBP1 luciferase reporter in 293T cells). It counts as cell-based. Also on record: endogenous in cells; host or cells: 293T cells. Conditions: 293T cells transfected with XBP1 luciferase reporter plasmid, ER stressors +/- inhibitors. The method, then:
Compounds disclosed herein were assessed for disruption of IRE1 signaling using a IRE1a Endoribonuclease Nanoluciferase Assay. Briefly, 2.5×10^6 293T cells were seeded in a 10 cm^2 tissue culture plate. About 24 hours later, the cells were transfected with Effectene. In a 15 mL tube, the following was added: 2 ug XBP1 luciferase reporter plasmid (PGK-Luc2-P2A-XBP1u-Nanoluciferase-PEST); 300 ul EC buffer; and 16 ul Enhancer, followed by incubation at room temp for 5 minutes. Next, 60 ul Effectene (Qiagen 301427) was added, followed by incubation at room temperature for 10 minutes. 2.6 mL cDMEM media was added. Old media was aspirated from the cells, followed by addition of 7 mL fresh media. Full transfection mixture was added dropwise to cells. Cells were incubated for 6 hours, followed by trypsinization, centrifugation and resuspension in 11 mL fresh cDMEM media. 100 uL of cells were plated per a well in a 96 well plate. A day later, ER stressors of choice +/− inhibitors were added. To harvest, media was aspirated from cells completely, then 50 uL 1× passive lysis buffer (Promega: E1941) was added per well and put on shaker (300 rpm) for 30 minutes at room temperature. […] Plates were read on luminometer, 1000 ms integration time per well. […] Plates were read on luminometer, 1000 ms second integration time per well. […]

Data set [3] concerns the target T1, IRE1a. The experiment in a line: In vitro FRET assay (XBP1 RNA probe cleavage). It counts as biochemical. The settings on record: SignalChem IRE1a protein 2 nM, fluorescence 485/515 nm. As to the method:
In vitro FRET assay was performed to evaluate the ability of select compounds to inhibit IRE1, the results of which are summarized in Table 3. To perform the in vitro FRET assay, 1× complete assay buffer (CAB; […], 50 mM sodium citrate pH 7.15, 1 mM magnesium acetate, 0.02% tween 20) was used to dilute SignalChem IRE1a protein to a final concentration of 2 nM. Selected compounds were serially diluted with DMSO in a non-binding black 384-well plate for a total of 15 ul in each well. 2 ul of the serially diluted compound or DMSO control were then added to new wells containing 98 ul of 1× CAB, for a total volume of 100 ul, 10 ul of which were then transferred to wells of a new plate. 5 ul of the diluted IRE1a was then added to each well. 5 ul of a […] XBP1 RNA probe was then added to each well. Fluorescence was then read over 30 minutes in kinetic mode (485/515 nm).
Two RNA probes were used, XBP1 wildtype (SEQ ID NO: 2) which is able to be spliced by active IRE1a or XBP1 mutant (SEQ ID NO: 3) which is unable to be spliced. Each probe contained a 5′ 6-FAM modification and a 3′ IOWA Black FQ modification.
A second FRET assay was performed to assess ATP-mediated inhibition. In this case, compounds and IRE1a were prepared and combined as discussed above, with the addition of ATP up to 1 mM final concentration. […] Plates were then read over 30 minutes in kinetic mode (485/515 nm).

T1 sequence (O75460 19-977): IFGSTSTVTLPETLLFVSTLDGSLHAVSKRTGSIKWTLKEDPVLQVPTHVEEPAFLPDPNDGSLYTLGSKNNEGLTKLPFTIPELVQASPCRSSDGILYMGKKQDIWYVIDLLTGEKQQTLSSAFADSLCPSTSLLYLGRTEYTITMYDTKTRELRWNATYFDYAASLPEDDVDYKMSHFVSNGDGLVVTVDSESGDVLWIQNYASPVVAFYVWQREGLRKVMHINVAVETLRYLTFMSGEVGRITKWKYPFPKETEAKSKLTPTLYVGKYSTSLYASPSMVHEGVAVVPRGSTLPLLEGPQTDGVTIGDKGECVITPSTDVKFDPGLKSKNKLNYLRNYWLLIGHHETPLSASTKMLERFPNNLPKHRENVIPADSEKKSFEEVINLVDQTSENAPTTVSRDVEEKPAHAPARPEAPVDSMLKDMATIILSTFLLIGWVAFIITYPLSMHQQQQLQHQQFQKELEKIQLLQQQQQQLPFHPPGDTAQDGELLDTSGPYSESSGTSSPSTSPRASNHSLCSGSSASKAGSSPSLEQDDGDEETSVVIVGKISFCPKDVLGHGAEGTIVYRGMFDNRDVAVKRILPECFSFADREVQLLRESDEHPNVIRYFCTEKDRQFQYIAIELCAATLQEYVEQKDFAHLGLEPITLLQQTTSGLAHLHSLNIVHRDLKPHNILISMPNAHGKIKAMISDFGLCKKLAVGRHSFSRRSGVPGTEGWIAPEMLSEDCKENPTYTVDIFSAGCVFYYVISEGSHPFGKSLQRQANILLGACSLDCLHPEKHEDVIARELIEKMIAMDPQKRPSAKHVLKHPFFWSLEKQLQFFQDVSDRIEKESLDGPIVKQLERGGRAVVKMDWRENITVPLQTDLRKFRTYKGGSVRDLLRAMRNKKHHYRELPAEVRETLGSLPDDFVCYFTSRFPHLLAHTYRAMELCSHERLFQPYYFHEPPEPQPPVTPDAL

Usually EC50 stands for the concentration giving half of the maximal effect. Higher therefore signals weaker potency. What is called IC50 is the concentration needed to halve the response being measured. Read a high IC50 as a need for much substance. Take `CCc1cc(-c2ccc(NS(=O)(=O)c3cnccc3Cl)nc2C)cc2cnc(N[C@H]3CC[C@H](N(C)C)CC3)nc12` [Compound 1, 4-chloro-N-(5-(2-(((1r,4r)-4-(dimethylamino)cyclohexyl)-amino)-8-ethylquinazolin-6-yl)-6-methylpyridin-2-yl)-pyridine-3-sulfonamide]: in data set [1], the “parent compound remaining after a 60 minute incubation” value was not below 45%. At IRE1a [2], this molecule displayed an EC50 not above 5 nM. At IRE1a [3], this molecule had a half-inhibitory concentration (IC50) not above 5 nM.

At IRE1a [2], `CCc1cc(-c2ccc(NS(=O)(=O)c3ccccc3Cl)nc2C)nc2cnc(N[C@H]3CC[C@H](N(C)C)CC3)nc12` [Compound 2, 2-chloro-N-(5-(2-(((1r,4r)-4-(dimethylamino)cyclohexyl)-amino)-8-ethylpyrido[3,2-d]-pyrimidin-6-yl)-6-methyl-pyridin-2-yl)benzenesulfon-amide] gave an EC50 not above 5 nM. This molecule had an IC50 against IRE1a [3] not above 5 nM.
